Results from patent publication US8952024B2, “Herbicidal pyrimidone derivatives” (E I du Pont de Nemours and Company, priority 2009, dated 2015).

What was measured:
Format in all cases: in vivo
[1] = tested on: umbrella sedge (Cyperus difformis); assay: Test B flooded paddy test; settings: for Plant response rating, Flood, Sedge, Umbrella: 250 g ai/ha, flooded paddy test, visual rating on 0 to 100 scale (0 no effect, 100 complete control) after 13 to 15 days; for Plant response rating, Sedge, Umbrella: Flood (flooded paddy test), 13 to 15 days; for Sedge, Umbrella plant response rating: Flood, 31 g ai/ha, scale 0 to 100 (0 no effect, 100 complete control)
In short: (§1)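 Rice, umbrella sedge, ducksalad and barnyardgrass were grown to the 2-leaf stage, flooded to 3 cm, and compound was applied directly to the paddy water, with that depth kept throughout. After 13 to 15 days in the greenhouse, plants were visually rated against controls on a 0 (no effect) to 100 (complete control) scale.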

[2] = tested on: barnyardgrass (Echinochloa crus-galli); assay: Test B flooded paddy test; settings: for Plant response rating, Flood, Barnyardgrass: 250 g ai/ha, flooded paddy test, visual rating on 0 to 100 scale (0 no effect, 100 complete control) after 13 to 15 days; for Plant response rating, Barnyardgrass: Flood (flooded paddy test), 13 to 15 days; for Barnyardgrass plant response rating: Flood, 31 g ai/ha, scale 0 to 100 (0 no effect, 100 complete control)
In short: as §1

[3] = tested on: ducksalad (Heteranthera limosa); assay: Test B flooded paddy test; settings: for Plant response rating, Flood, Ducksalad: 250 g ai/ha, flooded paddy test, visual rating on 0 to 100 scale (0 no effect, 100 complete control) after 13 to 15 days; for Plant response rating, Ducksalad: Flood (flooded paddy test), 13 to 15 days; for Ducksalad plant response rating: Flood, 31 g ai/ha, scale 0 to 100 (0 no effect, 100 complete control)
In short: as §1

[4] = tested on: rice (Oryza sativa); assay: Test B flooded paddy test; settings: for Plant response rating, Flood, Rice: 250 g ai/ha, flooded paddy test, visual rating on 0 to 100 scale (0 no effect, 100 complete control) after 13 to 15 days; for Plant response rating, Rice: Flood (flooded paddy test), 13 to 15 days; for Rice plant response rating: Flood, 31 g ai/ha, scale 0 to 100 (0 no effect, 100 complete control)
In short: as §1

[5] = tested on: ragweed (common ragweed, Ambrosia elatior); assay: Test B pre-/postemergence plant response; settings: for Ragweed plant response rating (0 to 100 scale): 0 is no effect
In short: (§2)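 Visually scored on a 0 to 100 scale after 13 to 15 days in greenhouse versus controls. Treatments were preemergence on seeded loam/sand soil and postemergence on 1- to 4-leaf plants.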

[6] = tested on: giant foxtail (Setaria faberii); assay: Test B pre-/postemergence plant response; settings: for Foxtail, Giant plant response rating (0 to 100 scale): 0 is no effect
In short: as §2

[7] = tested on: Italian ryegrass (Lolium multiflorum); assay: Test B pre-/postemergence plant response; settings: for Ryegrass, Italian plant response rating (0 to 100 scale): 0 is no effect
In short: as §2

[8] = tested on: winter barley (Hordeum vulgare); assay: Test B postemergence plant response; settings: for Barley plant response rating (0 to 100 scale): 0 is no effect
In short: (§3)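 Plants grown in peat/vermiculite medium were sprayed postemergence at 2–18 cm height (1- to 4-leaf stage). After 13–15 days in the greenhouse, response was rated visually against untreated controls on a 0–100 scale (0 no effect, 100 complete control).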

[9] = tested on: windgrass (Apera spica-venti); assay: Test B postemergence plant response; settings: for Windgrass plant response rating (0 to 100 scale): 0 is no effect
In short: as §3

[10] = tested on: canarygrass (Phalaris minor); assay: Test B postemergence plant response; settings: for Canarygrass plant response rating (0 to 100 scale): 0 is no effect
In short: as §3

[11] = tested on: chickweed (Stellaria media); assay: Test B postemergence plant response; settings: for Chickweed plant response rating (0 to 100 scale): 0 is no effect
In short: as §3

[12] = 62 g ai/ha, scale of 0 to 100 where 0 is no effect and 100 is complete control
[13] = 125 g ai/ha, scale 0 to 100, 0 is no effect, 100 is complete control
[14] = 62 g ai/ha, postemergence, 100 is complete control, 13 to 15 days
[15] = Postemergence, 125 g ai/ha, scale 0 to 100 (0 no effect, 100 complete control)
[16] = Postemergence, 250 g ai/ha, scale 0 to 100 (0 no effect, 100 complete control)
[17] = 31 g ai/ha, postemergence, scale 0 to 100, 0 is no effect, 100 is complete control
[18] = Postemergence, 31 g ai/ha, 0 to 100 scale (0 no effect, 100 complete control)
[19] = Postemergence, 250 g ai/ha, scale 0 to 100 (0 no effect, 100 complete control), 13 to 15 days
[20] = Postemergence, 62 g ai/ha, scale 0 to 100 (0 no effect, 100 complete control)
[21] = 16 g ai/ha, Postemergence, 0 to 100 scale
[22] = Postemergence, 125 g ai/ha, visual rating after 13 to 15 days, scale 0 (no effect) to 100 (complete control)

Compound: COCCn1c(-c2cccs2)ncc(C(=O)C2=C(O)CCCC2=O)c1=O [Compound 108]
- Plant response rating, Flood, Sedge, Umbrella [1]: 95
- Plant response rating, Sedge, Umbrella [1, 12]: 40
- Plant response rating, Sedge, Umbrella [1, 13]: 60
- Sedge, Umbrella plant response rating [1]: 0
- Plant response rating, Flood, Barnyardgrass [2]: 30
- Plant response rating, Barnyardgrass [2, 12]: 0
- Plant response rating, Barnyardgrass [2, 13]: 15
- Barnyardgrass plant response rating [2]: 0
- Plant response rating, Flood, Ducksalad [3]: 70
- Plant response rating, Ducksalad [3, 12]: 50
- Plant response rating, Ducksalad [3, 13]: 60
- Ducksalad plant response rating [3]: 40
- Plant response rating, Flood, Rice [4]: 10
- Plant response rating, Rice [4, 12]: 0
- Plant response rating, Rice [4, 13]: 0
- Rice plant response rating [4]: 0
- Ragweed plant response rating (0 to 100 scale) [5, 14]: 85
- Plant response rating, Ragweed [5, 15]: 95
- Plant response rating, Ragweed [5, 16]: 98
- Plant response rating, Foxtail, Giant [6, 17]: 45
- Foxtail, Giant plant response rating (0 to 100 scale) [6, 14]: 60
- Plant response rating, Foxtail, Giant [6, 15]: 75
- Plant response rating, Foxtail, Giant [6, 16]: 80
- Ryegrass, Italian plant response rating (0 to 100 scale) [7, 14]: 0
- Plant response rating, Ryegrass, Italian [7, 15]: 0
- Plant response rating, Ryegrass, Italian [7, 16]: 0
- Plant response rating, Barley [8, 17]: 0
- Barley plant response rating (0 to 100 scale) [8, 14]: 0
- Plant response rating, Barley [8, 15]: 0
- Plant response rating, Barley [8, 16]: 0
- Windgrass plant response rating (0 to 100 scale) [9, 14]: 10
- Plant response rating, Windgrass [9, 15]: 30
- Plant response rating, Canarygrass [10, 17]: 0
- Canarygrass plant response rating (0 to 100 scale) [10, 14]: 5
- Plant response rating, Canarygrass [10, 15]: 5
- Plant response rating, Canarygrass [10, 16]: 5
- Plant response rating, Chickweed [11, 17]: 85
- Chickweed plant response rating (0 to 100 scale) [11, 14]: 100
- Plant response rating, Chickweed [11, 15]: 100
- Plant response rating, Chickweed [11, 16]: 100

Compound: CCn1c(-c2cccc(F)c2)ncc(C(=O)C2=C(O)C3CCC(C3)C2=O)c1=O (stereo not shown) [Compound 236]
- Plant response rating, Flood, Sedge, Umbrella [1]: 40
- Plant response rating, Sedge, Umbrella [1, 12]: 0
- Plant response rating, Sedge, Umbrella [1, 13]: 0
- Sedge, Umbrella plant response rating [1]: 0
- Plant response rating, Flood, Barnyardgrass [2]: 20
- Plant response rating, Barnyardgrass [2, 12]: 0
- Plant response rating, Barnyardgrass [2, 13]: 0
- Barnyardgrass plant response rating [2]: 0
- Plant response rating, Flood, Ducksalad [3]: 70
- Plant response rating, Ducksalad [3, 12]: 0
- Plant response rating, Ducksalad [3, 13]: 60
- Ducksalad plant response rating [3]: 0
- Plant response rating, Flood, Rice [4]: 0
- Plant response rating, Rice [4, 12]: 0
- Plant response rating, Rice [4, 13]: 0
- Rice plant response rating [4]: 0
- Plant response rating, Ragweed [5, 18]: 80
- Plant response rating, Ragweed [5, 19]: 98
- Plant response rating, Ragweed [5, 20]: 95
- Plant response rating, Foxtail, Giant [6, 18]: 75
- Plant response rating, Foxtail, Giant [6, 15]: 95
- Plant response rating, Foxtail, Giant [6, 19]: 98
- Plant response rating, Foxtail, Giant [6, 20]: 80
- Plant response rating, Ryegrass, Italian [7, 18]: 0
- Plant response rating, Ryegrass, Italian [7, 19]: 5
- Plant response rating, Ryegrass, Italian [7, 20]: 0
- Plant response rating, Barley [8, 18]: 0
- Plant response rating, Barley [8, 15]: 0
- Plant response rating, Barley [8, 19]: 0
- Plant response rating, Barley [8, 20]: 0
- Plant response rating, Windgrass [9, 18]: 30
- Plant response rating, Windgrass [9, 19]: 85
- Plant response rating, Windgrass [9, 20]: 50
- Plant response rating, Canarygrass [10, 18]: 0
- Plant response rating, Canarygrass [10, 15]: 0
- Plant response rating, Canarygrass [10, 19]: 10
- Plant response rating, Canarygrass [10, 20]: 0
- Plant response rating, Chickweed [11, 18]: 75
- Plant response rating, Chickweed [11, 15]: 100
- Plant response rating, Chickweed [11, 19]: 100
- Plant response rating, Chickweed [11, 20]: 100

Compound: CCn1c(-c2cc(F)cc(F)c2)ncc(C(=O)C2=C(O)CCCC2=O)c1=O [Compound 122]
- Plant response rating, Flood, Sedge, Umbrella [1]: 45
- Plant response rating, Sedge, Umbrella [1, 12]: 20
- Plant response rating, Flood, Barnyardgrass [2]: 40
- Plant response rating, Barnyardgrass [2, 12]: 20
- Plant response rating, Flood, Ducksalad [3]: 0
- Plant response rating, Ducksalad [3, 12]: 0
- Plant response rating, Flood, Rice [4]: 15
- Plant response rating, Rice [4, 12]: 0
- Plant response rating, Ragweed [5, 21]: 55
- Ragweed plant response rating (0 to 100 scale) [5, 14]: 60
- Plant response rating, Ragweed [5, 18]: 60
- Plant response rating, Ragweed [5, 15]: 75
- Plant response rating, Foxtail, Giant [6, 21]: 65
- Foxtail, Giant plant response rating (0 to 100 scale) [6, 14]: 75
- Plant response rating, Foxtail, Giant [6, 18]: 70
- Plant response rating, Foxtail, Giant [6, 15]: 80
- Plant response rating, Ryegrass, Italian [7, 21]: 5
- Ryegrass, Italian plant response rating (0 to 100 scale) [7, 14]: 10
- Plant response rating, Ryegrass, Italian [7, 18]: 5
- Plant response rating, Ryegrass, Italian [7, 15]: 40
- Plant response rating, Barley [8, 21]: 0
- Barley plant response rating (0 to 100 scale) [8, 14]: 10
- Plant response rating, Barley [8, 18]: 0
- Plant response rating, Barley [8, 15]: 50
- Plant response rating, Windgrass [9, 21]: 5
- Windgrass plant response rating (0 to 100 scale) [9, 14]: 30
- Plant response rating, Windgrass [9, 18]: 5
- Plant response rating, Windgrass [9, 15]: 50
- Plant response rating, Canarygrass [10, 21]: 0
- Canarygrass plant response rating (0 to 100 scale) [10, 14]: 35
- Plant response rating, Canarygrass [10, 18]: 10
- Plant response rating, Canarygrass [10, 15]: 45
- Plant response rating, Chickweed [11, 21]: 65
- Chickweed plant response rating (0 to 100 scale) [11, 14]: 70
- Plant response rating, Chickweed [11, 18]: 70
- Plant response rating, Chickweed [11, 15]: 80

Compound: O=C1CCCC(O)=C1C(=O)c1cnc(-c2ccccc2)n(C2CC2)c1=O [Compound 90]
- Plant response rating, Flood, Sedge, Umbrella [1]: 80
- Plant response rating, Sedge, Umbrella [1, 12]: 60
- Plant response rating, Sedge, Umbrella [1, 13]: 75
- Sedge, Umbrella plant response rating [1]: 50
- Plant response rating, Flood, Barnyardgrass [2]: 30
- Plant response rating, Barnyardgrass [2, 12]: 0
- Plant response rating, Barnyardgrass [2, 13]: 15
- Barnyardgrass plant response rating [2]: 0
- Plant response rating, Flood, Ducksalad [3]: 90
- Plant response rating, Ducksalad [3, 12]: 65
- Plant response rating, Ducksalad [3, 13]: 80
- Ducksalad plant response rating [3]: 50
- Plant response rating, Flood, Rice [4]: 0
- Plant response rating, Rice [4, 12]: 0
- Plant response rating, Rice [4, 13]: 0
- Rice plant response rating [4]: 0
- Plant response rating, Ragweed [5, 17]: 60
- Ragweed plant response rating (0 to 100 scale) [5, 14]: 75
- Plant response rating, Ragweed [5, 16]: 95
- Plant response rating, Foxtail, Giant [6, 17]: 65
- Foxtail, Giant plant response rating (0 to 100 scale) [6, 14]: 70
- Plant response rating, Foxtail, Giant [6, 16]: 85
- Plant response rating, Ryegrass, Italian [7, 17]: 0
- Ryegrass, Italian plant response rating (0 to 100 scale) [7, 14]: 0
- Plant response rating, Ryegrass, Italian [7, 16]: 0
- Plant response rating, Barley [8, 17]: 0
- Barley plant response rating (0 to 100 scale) [8, 14]: 5
- Plant response rating, Barley [8, 22]: 10
- Plant response rating, Barley [8, 16]: 20
- Plant response rating, Windgrass [9, 17]: 0
- Windgrass plant response rating (0 to 100 scale) [9, 14]: 5
- Plant response rating, Windgrass [9, 16]: 50
- Plant response rating, Canarygrass [10, 17]: 5
- Canarygrass plant response rating (0 to 100 scale) [10, 14]: 10
- Plant response rating, Canarygrass [10, 22]: 30
- Plant response rating, Canarygrass [10, 16]: 30
- Plant response rating, Chickweed [11, 17]: 70
- Chickweed plant response rating (0 to 100 scale) [11, 14]: 80
- Plant response rating, Chickweed [11, 22]: 85
- Plant response rating, Chickweed [11, 16]: 90
